In ChEMBL document CHEMBL1201862, “PubChem BioAssay data set” (2004):
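Method: 48-hour compound exposure of cells in 96-well plates, five concentrations, linear interpolation of endpoints. The concentration for 50% growth inhibition is given as GI50.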 The source made the active and inactive calls. Rule as the data show it: active = GI50 up to about 1.1 µM and inactive = higher.

Tests used:
Assay in all cases: DTP human tumour cell line panel, 48 h
[1] = test system: SF-295
[2] = test system: LOX IMVI
[3] = test system: Hs-578T
[4] = test system: EKVX
[5] = test system: NCI-H23
[6] = test system: MDA-MB-435
[7] = test system: T47D
[8] = test system: CCRF-CEM
[9] = test system: A549
[10] = test system: SF-268
[11] = test system: HL-60
[12] = test system: BT-549
[13] = test system: KM12
[14] = test system: OVCAR-8
[15] = test system: SK-MEL-2
[16] = test system: SR
[17] = test system: OVCAR-4
[18] = test system: HOP-62
[19] = test system: UACC-257
[20] = test system: RPMI-8226
[21] = test system: IGROV-1
[22] = test system: MDA-MB-231
[23] = test system: SN12C
[24] = test system: SK-MEL-5
[25] = test system: Malme-3M
[26] = test system: CAKI-1
[27] = test system: RXF 393
[28] = test system: SK-OV-3
[29] = test system: MOLT-4
[30] = test system: PC-3
[31] = test system: NCI/ADR-RES
[32] = test system: SNB-75
[33] = test system: NCI-H226
[34] = test system: K562
[35] = test system: SF-539
[36] = test system: TK-10
[37] = test system: UACC-62
[38] = test system: U-251
[39] = test system: HT-29
[40] = test system: HCC 2998
[41] = test system: SW-620
[42] = test system: UO-31
[43] = test system: M14
[44] = test system: SNB-19
[45] = test system: 786-0
[46] = test system: NCI-H460
[47] = test system: COLO 205
[48] = test system: NCI-H522
[49] = test system: HCT-116
[50] = test system: HCT-15
[51] = test system: MCF7
[52] = test system: OVCAR-3
[53] = test system: DU-145
[54] = test system: SK-MEL-28
[55] = test system: HOP-92
[56] = test system: OVCAR-5
[57] = test system: ACHN

Measured: GI50

CCOC(=O)c1c(-c2ccccc2)nc2c(OC)nccn12
inactive: [1] > 100 µM | [2] > 100 µM | [3] > 100 µM | [4] > 100 µM | [5] > 100 µM | [6] > 100 µM | [7] 25.4 µM | [8] > 100 µM | [9] > 100 µM | [10] > 100 µM | [11] > 100 µM | [12] > 100 µM | [13] > 100 µM | [14] > 100 µM | [15] > 100 µM | [16] > 100 µM | [17] > 100 µM | [18] > 100 µM | [19] > 100 µM | [20] > 100 µM | [21] > 100 µM | [22] > 100 µM | [23] > 100 µM | [24] 61.1 µM | [25] > 100 µM | [26] > 100 µM | [27] 15.4 µM | [28] > 100 µM | [29] 14.5 µM | [30] > 100 µM | [31] > 100 µM | [32] > 100 µM | [33] > 100 µM | [34] > 100 µM | [35] > 100 µM | [36] 60.5 µM | [37] > 100 µM | [38] > 100 µM | [39] > 100 µM | [40] > 100 µM | [41] > 100 µM | [42] 20.5 µM | [43] > 100 µM | [44] > 100 µM | [45] > 100 µM | [46] > 100 µM | [47] > 100 µM | [48] > 100 µM | [49] > 100 µM | [51] > 100 µM | [52] > 100 µM | [53] > 100 µM | [54] > 100 µM
> 100 µM: [50]

COc1ccc(-c2nc3ncccn3c2-c2ccc(S(C)(=O)=O)cc2)cc1
inactive: [1] > 100 µM | [55] 14.1 µM | [2] > 100 µM | [3] > 100 µM | [5] > 100 µM | [6] 38 µM | [56] > 100 µM | [8] > 100 µM | [9] > 100 µM | [10] 35.2 µM | [11] > 100 µM | [12] > 100 µM | [13] > 100 µM | [14] > 100 µM | [15] > 100 µM | [16] 47.6 µM | [17] > 100 µM | [18] > 100 µM | [19] > 100 µM | [20] 41.7 µM | [21] 53.8 µM | [22] > 100 µM | [23] > 100 µM | [24] 48.2 µM | [26] 24.9 µM | [28] 90.4 µM | [29] > 100 µM | [30] > 100 µM | [31] > 100 µM | [32] > 100 µM | [34] > 100 µM | [35] > 100 µM | [37] 53.6 µM | [38] > 100 µM | [39] > 100 µM | [57] > 100 µM | [41] > 100 µM | [42] > 100 µM | [43] > 100 µM | [44] > 100 µM | [45] > 100 µM | [46] 66.4 µM | [47] > 100 µM | [49] > 100 µM | [51] 22.3 µM | [52] 75.7 µM | [53] > 100 µM | [54] > 100 µM
> 100 µM: [50]
